From patent US20250269036A1, “METHODS FOR ENHANCEMENT OF ENGINEERED CELL THERAPIES IN CANCER TREATMENT” (PURDUE RESEARCH FOUNDATION, priority 2021, published 2025)
“Also recorded” adds a separate entry of the source.

How the values were obtained:
[1] = system: FRβ-expressing macrophages; experiment: In vivo folate imaging of organs with OTL38; set-up: species or system C57BL/6 mice
Method: (§1) To evaluate if anti-inflammatory lung macrophages in these mice can be specifically targeted with folate-linked drugs, 10 days after the instillation, 10 nmol (for in vivo imaging) or 100 nmol (for in vivo labeling) of a folate-linked, near infrared fluorescent dye (OTL38) with or without 200-fold excess of FA-glucosamine (a competitor of OTL38) was injected into the tail veins of BM-treated mice and the dye uptake in the major organs was evaluated.
Finally, for the in vivo folate imaging studies, major organs (heart, lung, spleen, liver, small intestine, large intestine, and kidney) were resected and imaged using an AMI live imager (Spectral Instruments Imaging, Tucson, AZ). For in vivo folate receptor labeling studies, lungs of the mice were harvested immediately following euthanasia, digested with a lung dissociation kit (Miltenyi Biotec, Bergisch Gladbach, DE; #130-098-427) as described by gentleMACS Octo Dissociator with Heathers (Miltenyi Biotec, Bergisch Gladbach, DE; #130-096-427) as described by manual and filtered through a 70 μm cell strainer (Miltenyi Biotec, Bergisch Gladbach, DE; #130-098-462). Cells collected in the filtrate were depleted of erythrocytes by […] lysis, washed 2x in cold PBS and labeled for 30 min on ice with antibodies to desired macrophage markers (FITC-CD11b, Biolegend, San Diego, CA; #101205; FE-F4/80, Biolegend, San Diego, CA; #123109). Labeled macrophages were then washed twice in PBS, stained with 7AAD (viability stain) for 15 min and analyzed by flow cytometry using BD Accuri C6 Software (BD Biosciences, San Jose, CA).
FIGS. 7C and 7D show FRβ IHC staining of human IPF lung tissue (FIG. 7C) and healthy human lung tissue (FIG. 7D). […] After 2 hours, mice were sacrificed prior to analysis. […] For in vivo folate receptor labeling studies, lungs of the mice were harvested immediately following euthanasia, digested and then labeled with antibodies to desired macrophages markers (FITC-CD11b, PE-F4/80) and 7AAD (live/dead staining) and analyzed by flow cytometry.

[2] = system: FRβ positive macrophages in the inflamed lung; experiment: In vivo folate receptor labeling of lung macrophages, flow cytometry; set-up: species or system C57BL/6 mice
Method: as §1
Finally, for the in vivo folate imaging studies, major organs (heart, lung, spleen, liver, small intestine, large intestine, and kidney) were resected and imaged using an AMI live imager (Spectral Instruments Imaging, Tucson, AZ). […] Labeled macrophages were then washed twice in PBS, stained with 7AAD (viability stain) for 15 min and analyzed by flow cytometry using BD Accuri C6 Software (BD Biosciences, San Jose, CA).
FIGS. 7C and 7D show FRβ IHC staining of human IPF lung tissue (FIG. 7C) and healthy human lung tissue (FIG. 7D). […] For in vivo folate receptor labeling studies, lungs of the mice were harvested immediately following euthanasia, digested and then labeled with antibodies to desired macrophages markers (FITC-CD11b, PE-F4/80) and 7AAD (live/dead staining) and analyzed by flow cytometry. […]

[3] = system: M2-induced THP-1 macrophages; experiment: Secreted CCL18 and IL-1β in THP-1 macrophage supernatants by ELISA; assay type: cell-based, human; settings: ELISA, low concentration range (0.1-10 nM)
Method: FIGS. 6A-6D show graphical data representative of various marker levels measured from M2-induced THP-1 macrophages treated with different concentrations of drugs for 48 hours (FIGS. 6A and 6B) or for 2 hours, then displaced with fresh medium and cultured for the remaining 46 hours (FIGS. 6C and 6D). In both cases, cell supernatants were collected and secreted CCL18 protein and IL-1β was detected by ELISA.
CCL18 and IL-1β were quantified in induced THP-1 cell supernatants using a human DuoSet ELISA Development System (R&D Systems Europe, Abingdon, UK; #DY394-05) and an IL-1 beta Human ELISA Kit (Thermo Fisher Scientific, Waltham, MA; #BMS224-2) as described by manufactures. BALF samples were analyzed for mouse IFN-γ using ELISA MAX™ Deluxe (Biolegend, San Diego, CA; #430804).

[4] = system: IL-4, IL-6 plus IL-13 stimulated THP-1 cells (M2-like macrophages); experiment: Reprogramming of M2-polarized THP-1 macrophages, marker mRNA by qPCR; assay type: cell-based, human; settings: 2 hours; for CCL18 relative expression / CD206 relative expression / IL-1β relative expression: different nM concentrations, qPCR
Method: THP-1 cells were initially selected as a model system because this human monocytic cell line is known to acquire an M2-like phenotype and produce significant quantities of anti-inflammatory cytokines upon stimulation with IL-4, IL-6 plus IL-13.
THP-1 cells were seeded into 96-well plates at a density of 60,000 cells/well. Cells were differentiated into unpolarized macrophages by 48 hours incubation with 200 nM PMA followed by 24 hours incubation in fresh RPMI medium. […] Cultures were maintained at 37° C. in a humidified 5% CO2 incubator.
Total RNA was isolated from 1×10^5-2×10^5 macrophages using a Quick-RNATM MicroPrep kit (Zymo Research, Irvine, CA) according to the manufacturer-recommended protocol. […] IL-6, CXCL10, IFNα, IFN-γ and CD86 were used as markers for an M1 phenotype, while CCL18, CD206, CD163 and Arg1 were employed as markers for the M2 phenotype. IL-1β, PDGFβ, MMP9 and TIMP 3 were measured as indicators of an anti-inflammatory phenotype. IRAK-4 was used as an indicator of TLR7 stimulation. To control for specificity of the amplification products, a melting curve analysis was performed. […] Each sample was analyzed independently in triplicate for each marker.
Primarily, human monocytic (THP-1) cells were induced to the M2-like phenotype using the methods and materials previously described. In particular, THP-1 cells were seeded into 96-well plates at a density of 60,000 cells/well. Cells were differentiated into unpolarized macrophages by 48h incubation with 200 nM PMA followed by 24 hours incubation in fresh RPMI medium. The resulting macrophages were polarized to an M2-like phenotype by incubation with 20 ng/ml IL-4, 20 ng/ml IL-13, and 5 ng/mL IL-6 for 48h. Cultures were maintained at 37° C. in a humidified 5% CO2 incubator.
In addition to the nonconjugated TLR7 agonist, conjugated compounds of the present disclosure were likewise evaluated. […] The cells were subsequently harvested for gene analysis by qPCR and the relative expression of CCL18 (FIG. 14A), CD206 (FIG. 14B), and IL-1β (FIG. 14C) analyzed.

healthy mice = experiment: Plasma cytokine levels in healthy mice after tail vein injection; assay type: in vivo; settings: healthy mice, tail vein, 10 nmol, 1 hour or 1.5 hours after treatment
Method: (FIGS. 20A-C) Measurement of plasma IL-6 (FIG. 20A), IFNα (FIG. 20B) and TNFα (FIG. 20C) (n=3). (FIGS. 20D-F). The effect of drug concentration on plasma levels of IL-6 (FIG. 20D), IFNα (FIG. 20E), and TNFα (FIG. 20F) was determined at 1.5h, 1h, or 1h after treatment, respectively (n=2) (FIG. 20G).
(FIGS. 36C and 36D). The effect of drug on plasma levels of IL-6 (FIG. 36C) and TNFα (FIG. 36D) was determined at 1 hour or 1.5 hours after treatment.

Row | Molecule | secretion of CCL18 protein [3] | CCL18 relative expression [4] | CD206 relative expression [4] | IL-1β relative expression [4] | other results
1 | OTL38 | – | – | – | – | lung accumulation with competitor ([1]; BM-treated mice, simultaneous 200-fold excess folate-glucosamine): nearly quantitative blockade of lung accumulation; OTL38 fluorescence in organs of healthy mice ([1]; tail vein, 10 nmol, 2 hours): only observed in the kidneys; accumulation in lungs of BM-treated mice ([1]; tail vein, 10 nmol, day 10 post BM, 2 hours): in the lungs of BM-treated but not healthy mice; also recorded: pronounced accumulation in the fibrotic lungs; folate-dye retention in macrophage-like cells with competitor ([2]; 100 nmol plus 200-fold excess folate-glucosamine): blocked essentially all folate-dye retention; macrophage-like cells showing folate-targeted dye retention ([2]; fibrotic mice, 100 nmol, tail vein): about 22%
2 | Nc1nc(C(F)(F)F)cc2c1[nH]c(=O)n2Cc1ccc(NCCN2CCCC(CO)C2)nc1 (stereo not shown) [Compound 3A] | downregulated | – | – | – | –
3 | Nc1nc2ncc(CNc3ccc(C(=O)N[C@@H](CCC(=O)NCCOCCOCCOCCOCC4CCCN(CCNc5ccc(Cn6c(=O)[nH]c7c(N)nc(C(F)(F)F)cc76)cn5)C4)C(=O)O)cc3)nc2c(=O)[nH]1 (stereo partly shown) [Compound 3D] | downregulated | reduced | reduced | reduced | effectiveness in reducing M2 markers relative to the other compounds ([4]; CCL18, CD206, IL-1β): most effective
4 | Nc1nc2ncc(CNc3ccc(C(=O)NC(CCC(=O)N[C@@H](CSSCCOC(=O)OCC4CCCN(CCNc5ccc(Cn6c(=O)[nH]c7c(N)nc(C(F)(F)F)cc76)cn5)C4)C(=O)O)C(=O)O)cc3)nc2c(=O)[nH]1 (stereo partly shown) [Compound 3B] | downregulated | reduced | reduced | reduced | –
5 | CCOCc1nc2c(N)nc3ccccc3c2n1CC(C)(C)O [Compound A, reference compound] | – | – | – | – | systemic cytokine release (plasma IL-6, TNFα) (healthy mice): stimulated systemic cytokine release
